Measurements: the NIST ThermoML archive (doi:10.1021/acs.jced.8b00979)
Numbers after ± are expanded uncertainties.

Columns and labels:
[1] = xn = mol fraction of the nth substance listed; settings: 100 kPa, Liquid, x1 = 1; for viscosity: Capillary tube (Ostwald / Ubbelohde) method; for mass density: Vibrating tube method
[2] = 100 kPa, Liquid; for viscosity: Capillary tube (Ostwald / Ubbelohde) method; for mass density: Vibrating tube method

viscosity ([1]; 288.15 K) [mPa·s]	mass density ([1]; 288.15 K) [kg/m3]	viscosity ([1]; 293.15 K) [mPa·s]	mass density ([1]; 293.15 K) [kg/m3]	viscosity ([1]; 298.15 K) [mPa·s]	mass density ([1]; 298.15 K) [kg/m3]	viscosity ([1]; 303.15 K) [mPa·s]	mass density ([1]; 303.15 K) [kg/m3]	viscosity ([1]; 308.15 K) [mPa·s]	mass density ([1]; 308.15 K) [kg/m3]	viscosity ([1]; 313.15 K) [mPa·s]	mass density ([1]; 313.15 K) [kg/m3]	viscosity ([1]; 318.15 K) [mPa·s]	mass density ([1]; 318.15 K) [kg/m3]	viscosity ([1]; 323.15 K) [mPa·s]	mass density ([1]; 323.15 K) [kg/m3]	viscosity ([1]; 328.15 K) [mPa·s]	mass density ([1]; 328.15 K) [kg/m3]	viscosity ([2]; 288.15 K) [mPa·s]	mass density ([2]; 288.15 K) [kg/m3]	also measured	Structure (SMILES)
4.698 ± 0.19	818.56 ± 0.79	4.043 ± 0.16	814.92 ± 0.79	3.501 ± 0.14	811.26 ± 0.79	3.028 ± 0.12	807.57 ± 0.78	2.671 ± 0.11	803.86 ± 0.78	2.335 ± 0.094	800.11 ± 0.78	2.052 ± 0.083	796.32 ± 0.77	1.81 ± 0.073	792.48 ± 0.77	1.607 ± 0.065	788.61 ± 0.76	–	–	–	CCCCCO [pentan-1-ol] + CCC(C)CO
–	–	–	–	–	–	–	–	–	–	–	–	–	–	–	–	–	–	6.439 ± 0.26	823.35 ± 0.8	viscosity ([2]; 293.15 K): 5.3 ± 0.21 mPa·s; mass density ([2]; 293.15 K): 819.64 ± 0.79 kg/m3; viscosity ([2]; 298.15 K): 4.501 ± 0.18 mPa·s; mass density ([2]; 298.15 K): 815.85 ± 0.79 kg/m3; viscosity ([2]; 303.15 K): 3.825 ± 0.15 mPa·s; mass density ([2]; 303.15 K): 812.12 ± 0.79 kg/m3; viscosity ([2]; 308.15 K): 3.265 ± 0.13 mPa·s; mass density ([2]; 308.15 K): 808.29 ± 0.78 kg/m3; viscosity ([2]; 313.15 K): 2.783 ± 0.11 mPa·s; mass density ([2]; 313.15 K): 804.41 ± 0.78 kg/m3; viscosity ([2]; 318.15 K): 2.379 ± 0.096 mPa·s; mass density ([2]; 318.15 K): 800.47 ± 0.78 kg/m3; viscosity ([2]; 323.15 K): 2.06 ± 0.083 mPa·s; mass density ([2]; 323.15 K): 796.47 ± 0.77 kg/m3; viscosity ([2]; 328.15 K): 1.787 ± 0.072 mPa·s; mass density ([2]; 328.15 K): 792.41 ± 0.77 kg/m3	CCC(C)CO (stereo not drawn) [2-methyl-1-butanol]
5.057 ± 0.2	813.34 ± 0.79	4.174 ± 0.17	809.38 ± 0.78	3.398 ± 0.14	805.35 ± 0.78	2.82 ± 0.11	801.24 ± 0.78	2.336 ± 0.094	797.05 ± 0.77	1.99 ± 0.08	792.78 ± 0.77	1.706 ± 0.069	788.42 ± 0.77	1.472 ± 0.06	783.99 ± 0.76	1.306 ± 0.053	779.46 ± 0.76	–	–	–	CCCC(C)O (stereo not drawn) [pentan-2-ol] + CCC(C)CO
4.698 ± 0.19	818.56 ± 0.79	4.043 ± 0.16	814.92 ± 0.79	3.501 ± 0.14	811.26 ± 0.79	3.028 ± 0.12	807.57 ± 0.78	2.671 ± 0.11	803.86 ± 0.78	2.335 ± 0.094	800.11 ± 0.78	2.052 ± 0.083	796.32 ± 0.77	1.81 ± 0.073	792.48 ± 0.77	1.607 ± 0.065	788.61 ± 0.76	–	–	–	CCCCCO [pentan-1-ol] + CCCC(C)O
–	–	–	–	–	–	–	–	–	–	–	–	–	–	–	–	–	–	4.698 ± 0.19	818.56 ± 0.79	viscosity ([2]; 293.15 K): 4.043 ± 0.16 mPa·s; mass density ([2]; 293.15 K): 814.92 ± 0.79 kg/m3; viscosity ([2]; 298.15 K): 3.501 ± 0.14 mPa·s; mass density ([2]; 298.15 K): 811.26 ± 0.79 kg/m3; viscosity ([2]; 303.15 K): 3.028 ± 0.12 mPa·s; mass density ([2]; 303.15 K): 807.57 ± 0.78 kg/m3; viscosity ([2]; 308.15 K): 2.671 ± 0.11 mPa·s; mass density ([2]; 308.15 K): 803.86 ± 0.78 kg/m3; viscosity ([2]; 313.15 K): 2.335 ± 0.094 mPa·s; mass density ([2]; 313.15 K): 800.11 ± 0.78 kg/m3; viscosity ([2]; 318.15 K): 2.052 ± 0.083 mPa·s; mass density ([2]; 318.15 K): 796.32 ± 0.77 kg/m3; viscosity ([2]; 323.15 K): 1.81 ± 0.073 mPa·s; mass density ([2]; 323.15 K): 792.48 ± 0.77 kg/m3; viscosity ([2]; 328.15 K): 1.607 ± 0.065 mPa·s; mass density ([2]; 328.15 K): 788.61 ± 0.76 kg/m3	CCCCCO [pentan-1-ol]
–	–	–	–	–	–	–	–	–	–	–	–	–	–	–	–	–	–	5.057 ± 0.2	813.34 ± 0.79	viscosity ([2]; 293.15 K): 4.174 ± 0.17 mPa·s; mass density ([2]; 293.15 K): 809.38 ± 0.78 kg/m3; viscosity ([2]; 298.15 K): 3.398 ± 0.14 mPa·s; mass density ([2]; 298.15 K): 805.35 ± 0.78 kg/m3; viscosity ([2]; 303.15 K): 2.82 ± 0.11 mPa·s; mass density ([2]; 303.15 K): 801.24 ± 0.78 kg/m3; viscosity ([2]; 308.15 K): 2.336 ± 0.094 mPa·s; mass density ([2]; 308.15 K): 797.05 ± 0.77 kg/m3; viscosity ([2]; 313.15 K): 1.99 ± 0.08 mPa·s; mass density ([2]; 313.15 K): 792.78 ± 0.77 kg/m3; viscosity ([2]; 318.15 K): 1.706 ± 0.069 mPa·s; mass density ([2]; 318.15 K): 788.42 ± 0.77 kg/m3; viscosity ([2]; 323.15 K): 1.472 ± 0.06 mPa·s; mass density ([2]; 323.15 K): 783.99 ± 0.76 kg/m3; viscosity ([2]; 328.15 K): 1.306 ± 0.053 mPa·s; mass density ([2]; 328.15 K): 779.46 ± 0.76 kg/m3	CCCC(C)O (stereo not drawn) [pentan-2-ol]
